Measurements reported in patent US10597388B2, “Pyridazinone herbicides” (FMC CORPORATION, priority 2014, dated 2020).

Key:
Type in all cases: in vivo
[1] = tested on: blackgrass (Alopecurus myosuroides); assay: Test A greenhouse herbicide test, postemergence; conditions: for Blackgrass plant response rating: 0 is no effect, 100 is complete control
Method in brief: (§1)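 Visual injury score, 0 (no effect) to 100 (complete control), versus untreated controls roughly 10 d after postemergence spray; plants at one- to two-leaf stage, 2 to 10 cm tall, in loam soil and sand, kept in greenhouse.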

[2] = tested on: galium (catchweed bedstraw, Galium aparine); assay: Test A greenhouse herbicide test, postemergence; conditions: for Galium plant response rating: 0 is no effect, 100 is complete control
Method in brief: as §1

[3] = tested on: barnyardgrass (Echinochloa crus-galli); assay: Test B flooded paddy test; conditions: 250 g ai/ha, Flood; visual rating on scale of 0 to 100 where 0 is no effect and 100 is complete control; 13 to 15 d after treatment
Method in brief: (§2)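 Plants grown to the 2-leaf stage. At treatment, pots were flooded to 3 cm above the soil, compound was applied directly to the paddy water, and that depth was held throughout. After 13 to 15 d in the greenhouse, response was rated visually against controls on a 0 (no effect) to 100 (complete control) scale.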

[4] = tested on: ducksalad (Heteranthera limosa); assay: Test B flooded paddy test; conditions: 250 g ai/ha, Flood; visual rating on scale of 0 to 100 where 0 is no effect and 100 is complete control; 13 to 15 d after treatment
Method in brief: as §2

[5] = tested on: sedge, umbrella (small-flower umbrella sedge, Cyperus difformis); assay: Test B flooded paddy test; conditions: 250 g ai/ha, Flood; visual rating on scale of 0 to 100 where 0 is no effect and 100 is complete control; 13 to 15 d after treatment
Method in brief: as §2

rice (Oryza sativa) = assay: Test B flooded paddy test; conditions: 250 g ai/ha, Flood; visual rating on scale of 0 to 100 where 0 is no effect and 100 is complete control; 13 to 15 d after treatment
Method in brief: as §2

[6] = tested on: wheat (Triticum aestivum); assay: Test A greenhouse herbicide test, pre- and postemergence; conditions: Postemergence; for Wheat plant response rating: 0 is no effect, 100 is complete control
Excerpt: (§3) Seeds of plant species selected from barnyardgrass (Echinochloa crus-galli), kochia (Kochia scoparia), ragweed (common ragweed, Ambrosia elatior), ryegrass, Italian (Italian ryegrass, Lolium multiflorum), crabgrass, large (large crabgrass, Digitaria sanguinalis), foxtail, giant (giant foxtail, Setaria faberii), momingglory (Ipomoea spp.), pigweed (Amaranthus retroflexus), velvetleaf (Abutilon theophrasti), wheat (Triticum aestivum), and corn (Zea mays) were planted into a blend of loam soil and sand and treated preemergence with a directed soil spray using test chemicals formulated in a non-phytotoxic solvent mixture which included a surfactant.
(§4) At the same time, plants selected from these crop and weed species and also blackgrass (Alopecurus myosuroides), and galium (catchweed bedstraw, Galium aparine) were planted in pots containing the same blend of loam soil and sand and treated with postemergence applications of test chemicals formulated in the same manner. Plants ranged in height from 2 to 10 cm and were in the one- to two-leaf stage for the postemergence treatment. Treated plants and untreated controls were maintained in a greenhouse for approximately 10 d, after which time all treated plants were compared to untreated controls and visually evaluated for injury. Plant response ratings, summarized in Table A, are based on a 0 to 100 scale where 0 is no effect and 100 is complete control. A dash (-) response means no test result.

[7] = tested on: barnyardgrass (Echinochloa crus-galli); assay: as above
Excerpt: as §3, §4

[8] = tested on: ryegrass, Italian (Italian ryegrass, Lolium multiflorum); assay: as above
Excerpt: as §3, §4

[9] = tested on: pigweed (Amaranthus retroflexus); assay: as above
Excerpt: as §3, §4

[10] = tested on: foxtail, giant (giant foxtail, Setaria faberii); assay: as above
Excerpt: as §3, §4

kochia (Kochia scoparia) = assay: as above
Excerpt: as §3, §4

corn (Zea mays) = assay: as above; conditions: Postemergence; for Corn plant response rating: 0 is no effect, 100 is complete control
Excerpt: as §3, §4

[11] = tested on: ragweed (common ragweed, Ambrosia elatior); assay: as above
Excerpt: as §3, §4

[12] = Postemergence, 1000 g ai/ha, 0 to 100 scale, 0 is no effect, 100 is complete control
[13] = Preemergence, 1000 g ai/ha, 0 to 100 scale, 0 no effect, 100 complete control
[14] = 125 g ai/ha, visual rating after approx. 10 d, 0 to 100 scale (0 no effect, 100 complete control)
[15] = Postemergence, 125 g ai/ha, visual rating after approx. 10 d, 0 to 100 scale (0 no effect, 100 complete control)
[16] = Postemergence, 500 g ai/ha, 0 to 100 scale, 0 is no effect, 100 is complete control
[17] = Preemergence, 125 g ai/ha, 0 to 100 scale where 0 is no effect and 100 is complete control
[18] = Preemergence, 500 g ai/ha, 0 to 100 scale, 0 no effect, 100 complete control
[19] = 125 g ai/ha, 0 to 100 scale, 0 no effect, 100 complete control
[20] = 500 g ai/ha, visual rating after approx. 10 d, 0 to 100 scale (0 no effect, 100 complete control)
[21] = Postemergence, 125 g ai/ha, 0 to 100 scale, 0 no effect, 100 complete control
[22] = Postemergence, 500 g ai/ha, visual rating after approx. 10 d, 0 to 100 scale (0 no effect, 100 complete control)
[23] = Preemergence, 125 g ai/ha, visual injury rating, 0 to 100 scale (0 no effect, 100 complete control), approx. 10 d
[24] = Preemergence, 500 g ai/ha, 0 to 100 scale where 0 is no effect and 100 is complete control

**Q.** What does the source list for `Cc1nn(C)c(=O)c(-c2cccc3ccccc23)c1OCC(=O)C1CC1` [Compound 181]?
**A.** Blackgrass plant response rating ([1]; 1000 g ai/ha, 0 to 100 scale): 20; Galium plant response rating ([2]; 1000 g ai/ha, 0 to 100 scale): 80; Plant response rating, Barnyardgrass [3]: 0; Plant response rating, Ducksalad [4]: 0; Plant response rating, Sedge, Umbrella [5]: 0; Plant response rating, Rice (rice (Oryza sativa)): 0; Wheat plant response rating ([6]; 1000 g ai/ha, 0 to 100 scale): 0; Barnyardgrass plant response rating [7, 12]: 0; Plant response rating, Barnyardgrass [7, 13]: 0; Ryegrass, Italian plant response rating [8, 12]: 80; Plant response rating, Ryegrass, Italian [8, 13]: 60; Pigweed plant response rating [9, 12]: 30; Plant response rating, Pigweed [9, 13]: 30; Foxtail, Giant plant response rating [10, 12]: 0; Plant response rating, Foxtail, Giant [10, 13]: 0; Kochia plant response rating (kochia (Kochia scoparia); [12]): 0; Plant response rating, Kochia (kochia (Kochia scoparia); [13]): 10; Corn plant response rating (corn (Zea mays); 1000 g ai/ha, 0 to 100 scale): 0; Ragweed plant response rating [11, 12]: 30; Plant response rating, Ragweed [11, 13]: 10

**Q.** With `Cc1ccc2c(c1)c(-c1c(O)c(C)nn(C)c1=O)c(C)n2C` [Compound 31] as the compound, how does the “Plant response rating, Blackgrass” value [1, 14] read?
**A.** Its value is 0.

**Q.** And the “Blackgrass plant response rating” value ([1]; 500 g ai/ha, 0 to 100 scale)?
**A.** Its value is 20.

**Q.** What about the “Plant response rating, Galium” value [2, 14] of the same compound?
**A.** Its value is 20.

**Q.** And the “Galium plant response rating” value ([2]; 500 g ai/ha, 0 to 100 scale)?
**A.** Its value is 70.

**Q.** What about the “Plant response rating, Barnyardgrass” value [3] of the same compound?
**A.** Its value is 0.

**Q.** What about the “Plant response rating, Ducksalad” value [4] of the same compound?
**A.** The value was 0.

**Q.** What about the “Plant response rating, Sedge, Umbrella” value [5] of the same compound?
**A.** Its value is 0.

**Q.** What about the “Plant response rating, Rice” value (rice (Oryza sativa)) of the same compound?
**A.** The value was 0.

**Q.** What about the “Plant response rating, Wheat” value ([6]; 125 g ai/ha, 0 to 100 scale where 0 is no effect and 100 is complete control) of the same compound?
**A.** Its value is 0.

**Q.** And the “Wheat plant response rating” value ([6]; 500 g ai/ha, 0 to 100 scale)?
**A.** Its value is 0.

**Q.** And the “Plant response rating, Barnyardgrass” value [7, 15]?
**A.** Its value is 0.

**Q.** What about the “Barnyardgrass plant response rating” value [7, 16] of the same compound?
**A.** Its value is 10.

**Q.** And the “Barnyardgrass plant response rating” value [7, 17]?
**A.** Its value is 0.

**Q.** And the “Plant response rating, Barnyardgrass” value [7, 18]?
**A.** The value was 0.

**Q.** And the “Plant response rating, Ryegrass, Italian” value ([8]; Postemergence, 125 g ai/ha, 0 to 100 scale where 0 is no effect and 100 is complete control)?
**A.** Its value is 0.

**Q.** What about the “Ryegrass, Italian plant response rating” value [8, 16] of the same compound?
**A.** Its value is 0.

**Q.** And the “Ryegrass, Italian plant response rating” value [8, 17]?
**A.** Its value is 0.

**Q.** And the “Plant response rating, Ryegrass, Italian” value [8, 18]?
**A.** The value was 0.

**Q.** What about the “Plant response rating, Pigweed” value [9, 15] of the same compound?
**A.** Its value is 20.

**Q.** And the “Pigweed plant response rating” value [9, 16]?
**A.** The value was 40.

**Q.** What about the “Pigweed plant response rating” value [9, 17] of the same compound?
**A.** Its value is 0.

**Q.** And the “Plant response rating, Pigweed” value [9, 18]?
**A.** The value was 0.

**Q.** And the “Plant response rating, Foxtail, Giant” value [10, 15]?
**A.** The value was 0.

**Q.** What about the “Foxtail, Giant plant response rating” value [10, 16] of the same compound?
**A.** The value was 10.

**Q.** What about the “Foxtail, Giant plant response rating” value [10, 17] of the same compound?
**A.** Its value is 0.

**Q.** And the “Plant response rating, Foxtail, Giant” value [10, 18]?
**A.** The value was 0.

**Q.** What about the “Plant response rating, Kochia” value (kochia (Kochia scoparia); [15]) of the same compound?
**A.** The value was 0.

**Q.** And the “Kochia plant response rating” value (kochia (Kochia scoparia); [16])?
**A.** Its value is 0.

**Q.** And the “Kochia plant response rating” value (kochia (Kochia scoparia); [17])?
**A.** The value was 0.

**Q.** And the “Plant response rating, Kochia” value (kochia (Kochia scoparia); [18])?
**A.** Its value is 0.

**Q.** What about the “Plant response rating, Corn” value (corn (Zea mays); [14]) of the same compound?
**A.** Its value is 0.

**Q.** What about the “Corn plant response rating” value (corn (Zea mays); 500 g ai/ha, 0 to 100 scale) of the same compound?
**A.** Its value is 0.

**Q.** And the “Plant response rating, Ragweed” value [11, 15]?
**A.** Its value is 0.

**Q.** What about the “Ragweed plant response rating” value [11, 16] of the same compound?
**A.** Its value is 20.

**Q.** And the “Ragweed plant response rating” value [11, 17]?
**A.** The value was 0.

**Q.** And the “Plant response rating, Ragweed” value [11, 18]?
**A.** Its value is 30.

**Q.** Which results are given for `Cc1nn(C)c(=O)c(-c2ccc(Cl)c3ccccc23)c1OS(=O)(=O)C(F)(F)F` [Compound 158]?
**A.** Plant response rating, Blackgrass [1, 19]: 50; Plant response rating, Blackgrass [1, 20]: 60; Plant response rating, Galium [2, 19]: 80; Plant response rating, Galium [2, 20]: 90; Plant response rating, Barnyardgrass [3]: 0; Plant response rating, Ducksalad [4]: 0; Plant response rating, Sedge, Umbrella [5]: 65; Plant response rating, Rice (rice (Oryza sativa)): 20; Plant response rating, Wheat [6, 19]: 0; Plant response rating, Wheat [6, 20]: 0; Plant response rating, Barnyardgrass [7, 21]: 10; Plant response rating, Barnyardgrass [7, 22]: 50; Plant response rating, Barnyardgrass [7, 23]: 10; Plant response rating, Barnyardgrass [7, 24]: 60; Plant response rating, Ryegrass, Italian [8, 21]: 90; Plant response rating, Ryegrass, Italian [8, 22]: 100; Plant response rating, Ryegrass, Italian [8, 23]: 80; Plant response rating, Ryegrass, Italian [8, 24]: 80; Plant response rating, Pigweed [9, 21]: 80; Plant response rating, Pigweed [9, 22]: 100; Plant response rating, Pigweed [9, 23]: 10; Plant response rating, Pigweed [9, 24]: 100; Plant response rating, Foxtail, Giant [10, 21]: 30; Plant response rating, Foxtail, Giant [10, 22]: 60; Plant response rating, Foxtail, Giant [10, 23]: 10; Plant response rating, Foxtail, Giant [10, 24]: 40; Plant response rating, Kochia (kochia (Kochia scoparia); [21]): 90; Plant response rating, Kochia (kochia (Kochia scoparia); [22]): 100; Plant response rating, Kochia (kochia (Kochia scoparia); [23]): 30; Plant response rating, Kochia (kochia (Kochia scoparia); [24]): 40; Plant response rating, Corn (corn (Zea mays); [19]): 0; Plant response rating, Corn (corn (Zea mays); [20]): 0; Plant response rating, Ragweed [11, 21]: 90; Plant response rating, Ragweed [11, 22]: 100; Plant response rating, Ragweed [11, 23]: 50; Plant response rating, Ragweed [11, 24]: 80
